The first experiment addresses T1, Dystroglycan (Cricetulus griseus) (UniProt G3H8F4).
T1 sequence (whole entry): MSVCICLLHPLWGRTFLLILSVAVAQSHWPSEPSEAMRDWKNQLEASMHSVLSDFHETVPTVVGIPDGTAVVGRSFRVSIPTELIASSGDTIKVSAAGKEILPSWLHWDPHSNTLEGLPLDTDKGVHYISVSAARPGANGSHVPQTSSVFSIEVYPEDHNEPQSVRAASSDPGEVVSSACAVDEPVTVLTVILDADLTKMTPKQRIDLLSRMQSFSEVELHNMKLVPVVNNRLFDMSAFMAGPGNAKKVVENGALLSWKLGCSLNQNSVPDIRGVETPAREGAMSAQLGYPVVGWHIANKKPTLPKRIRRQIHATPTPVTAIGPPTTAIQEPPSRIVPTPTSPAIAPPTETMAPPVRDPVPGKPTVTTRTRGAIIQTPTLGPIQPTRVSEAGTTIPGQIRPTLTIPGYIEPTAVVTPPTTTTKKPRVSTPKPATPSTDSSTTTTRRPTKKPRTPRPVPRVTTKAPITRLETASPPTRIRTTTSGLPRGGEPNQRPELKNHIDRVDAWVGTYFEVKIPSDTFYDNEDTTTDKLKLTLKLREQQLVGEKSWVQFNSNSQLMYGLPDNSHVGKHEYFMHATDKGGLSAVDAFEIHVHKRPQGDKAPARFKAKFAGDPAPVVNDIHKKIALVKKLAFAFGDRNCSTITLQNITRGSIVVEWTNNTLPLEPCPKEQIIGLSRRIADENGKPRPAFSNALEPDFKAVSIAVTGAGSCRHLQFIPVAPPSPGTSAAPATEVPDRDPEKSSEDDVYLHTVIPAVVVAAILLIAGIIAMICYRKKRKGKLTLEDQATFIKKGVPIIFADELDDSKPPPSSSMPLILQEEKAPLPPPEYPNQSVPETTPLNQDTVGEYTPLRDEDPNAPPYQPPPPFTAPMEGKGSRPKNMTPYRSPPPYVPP
The experiment is described as follows: Increase of functional O-mannosylation of alpha-dystroglycan in Chinese hamster pro5 cells expressing LARGE after 48 hrs by alpha-screen assay. In kind it is cell-based. In general terms: Alpha assays give light when donor and acceptor beads are brought close together.
With `c1csc(Cn2nnnc2CN2CCN(c3nc4ccccc4s3)CC2)c1`, the EC1.5 was 8.7 µM.

In turn, `c1ccc(C(c2nnnn2Cc2cccs2)N2CCN(c3nc4ccccc4s3)CC2)cc1` (configuration not stated) registered an EC1.5 of over 64 µM.

`CCC(c1nnnn1Cc1cccs1)N1CCN(c2nc3ccc(C)cc3s2)CC1` (configuration not stated) showed an EC1.5 of 15 µM.

Regarding `CCC(c1nnnn1-c1ccccc1)N1CCN(c2nc3ccccc3s2)CC1` (configuration not stated), the EC1.5 is over 64 µM.

In the case of `CC(C)CC(c1nnnn1Cc1cccs1)N1CCN(c2nc3ccccc3s2)CC1` (configuration not stated), the EC1.5 is over 64 µM.

In turn, `CCC(c1nnnn1Cc1ccco1)N1CCN(c2nc3ccccc3s2)CC1` (configuration not stated) had an EC1.5 of 9.5 µM.

Consider `CCC(NCCNc1nc2cccc(F)c2s1)c1nnnn1Cc1cccs1` (configuration not stated), for which the EC1.5 was over 64 µM.

Regarding `CCC(c1nnnn1Cc1cccs1)N1CCN(c2nc3ccc(NC(=O)c4ccccc4Cl)cc3s2)CC1` (configuration not stated), the EC1.5 was over 64 µM.

For the compound `CCC(c1nnnn1Cc1cccs1)N1CCN(c2nc3cc(F)ccc3s2)CC1` (configuration not stated), the EC1.5 is over 64 µM.

Compound `CCC(c1nnnn1Cc1cccs1)N1CCN(c2nc3c(F)cccc3s2)CC1` (configuration not stated) showed an EC1.5 of 4.9 µM.

With `Fc1ccc(Cn2nnnc2CN2CCN(c3nc4ccccc4s3)CC2)cc1`, the EC1.5 was over 64 µM.

As to `CCC(c1nnnn1Cc1cccs1)N1CCN(c2nc3cccc(F)c3s2)CC1` (configuration not stated), the EC1.5 is 2.6 µM.

Compound `CCC(c1nnnn1Cc1cccs1)N1CCN(c2nc3c(N)cccc3s2)CC1` (configuration not stated) returned an EC1.5 of 16 µM.

In turn, `CC(C)n1nnnc1CN1CCN(c2nc3ccccc3s2)CC1` showed an EC1.5 of over 64 µM.

Compound `CCC(c1nnnn1Cc1cccs1)N1CCN(c2nc3ccc(NC(=O)c4ccccc4C)cc3s2)CC1` (configuration not stated) displayed an EC1.5 of over 64 µM.

In turn, `CCC(c1nnnn1Cc1cccs1)N1CCN(c2nc3ccccc3s2)CC1` (configuration not stated) had an EC1.5 of 4.6 µM.

With `CCC(c1nnnn1Cc1cccs1)N1CCN(c2nc3ccc(N)cc3s2)CC1` (configuration not stated), the EC1.5 was found to be 11 µM.

With `CCCC(c1nnnn1Cc1cccs1)N1CCN(c2nc3ccccc3s2)CC1` (configuration not stated), the EC1.5 was 34 µM.

In turn, `CCC(c1nnnn1CCc1cccs1)N1CCN(c2nc3cccc(F)c3s2)CC1` (configuration not stated) gave an EC1.5 of 64 µM.

For the compound `CCC(c1ccc(-c2nc3ccccc3s2)cc1)c1nnnn1Cc1cccs1` (configuration not stated), the EC1.5 worked out at 49 µM.

`CCC(c1nnnn1Cc1cccs1)N1CCN(c2nc3ccc(Cl)cc3s2)CC1` (configuration not stated) returned an EC1.5 of 13 µM.

Consider `CCC(c1nnnn1Cc1cccs1)N1CCN(c2nc3cc(N)ccc3s2)CC1` (configuration not stated), for which the EC1.5 was determined as 3.4 µM.

Regarding `CCC(c1nnnn1Cc1cccs1)N1CCN(c2nc3ccccc3o2)CC1` (configuration not stated), the EC1.5 was 9.5 µM.

As for `CCC(c1nnnn1Cc1cccs1)N1CCN(Cc2nc3ccccc3s2)CC1` (configuration not stated), the EC1.5 came to 64 µM.

`CCC(c1nnnn1Cc1cccs1)N1CCN(c2nc3ccc(C(=O)O)cc3s2)CC1` (configuration not stated) showed an EC1.5 of 19 µM.

`CCC(c1nnnn1Cc1cccs1)N1CCN(c2nc3cccc(O)c3s2)CC1` (configuration not stated): the EC1.5 came out at 21 µM.

In turn, `CCC(c1nnnn1Cc1cccs1)N1CCN(c2nc3ccc(F)cc3s2)CC1` (configuration not stated) returned an EC1.5 of 21 µM.

On to `CCC(c1nnnn1Cc1cccs1)N1CCN(c2nc3ccc(NC(=O)CCCC[C@@H]4SC[C@@H]5NC(=O)N[C@@H]54)cc3s2)CC1` (some centres not stated), for which the EC1.5 came out at 4.3 µM.

Take `CCC(c1nnnn1Cc1nccs1)N1CCN(c2nc3cccc(F)c3s2)CC1` (configuration not stated): the EC1.5 worked out at 43 µM.

Compound `CCC(c1nnnn1Cc1cccs1)N1CCN(c2nc3cc([N+](=O)[O-])ccc3s2)CC1` (configuration not stated) displayed an EC1.5 of over 64 µM.

The compound `CCC(c1nnnn1Cc1cccs1)N1CCN(c2nc3ccc(-c4ccccc4)cc3s2)CC1` (configuration not stated) yielded an EC1.5 of over 64 µM.

`CCC(c1nnnn1Cc1ccccc1)N1CCN(c2nc3ccccc3s2)CC1` (configuration not stated) yielded an EC1.5 of over 64 µM.

`CCC(c1nnnn1Cc1cccs1)N1CCN(C2=Nc3ccccc3C2)CC1` (configuration not stated) registered an EC1.5 of 28 µM.

The compound `CCC(c1cnnn1Cc1cccs1)N1CCN(c2nc3ccccc3s2)CC1` (configuration not stated) registered an EC1.5 of 48 µM.

`CCC(c1nnnn1Cc1cccs1)N1CCN(c2nc3cc([N+](=O)[O-])cc(F)c3s2)CC1` (configuration not stated): the EC1.5 is 25 µM.

`CCC(c1nnnn1Cc1cccs1)N1CCN(c2nc3cccc(C(=O)OC)c3s2)CC1` (configuration not stated) registered an EC1.5 of 14 µM.

In turn, `O=C(c1nnnn1Cc1cccs1)N1CCN(c2nc3ccccc3s2)CC1` displayed an EC1.5 of over 64 µM.

Compound `CCC(c1nnnn1Cc1cccs1)N1CCN(c2nc3cc(OC)c(OC)c(OC)c3s2)CC1` (configuration not stated) came in with an EC1.5 of 6.5 µM.

For the compound `CCC(c1nnnn1Cc1cccs1)N1CCN(c2nc3ccc(OC)cc3s2)CC1` (configuration not stated), the EC1.5 was found to be 7.1 µM.

The compound `CCC(c1nnnn1Cc1cccs1)N1CCN(c2nc3cccc(C(=O)O)c3s2)CC1` (configuration not stated) came in with an EC1.5 of 22 µM.

Compound `CCC(c1nnnn1Cc1cccs1)N1CCN(c2nc3ccccc3[nH]2)CC1` (configuration not stated) came in with an EC1.5 of 17 µM.

Turning to `c1ccc2sc(N3CCN(Cc4nnnn4C4CCCC4)CC3)nc2c1`, the EC1.5 was over 64 µM.

Regarding `CCC(c1nnnn1Cc1cccs1)N1CCN(c2nc3ccc(C(=O)OC)cc3s2)CC1` (configuration not stated), the EC1.5 was determined as 28 µM.

As for `CCC(c1nnnn1Cc1cccs1)N1CCN(c2nc3c(F)cc(F)cc3s2)CC1` (configuration not stated), the EC1.5 is 17 µM.

`CCC(c1nnnn1Cc1cccs1)N1CCN(c2nc3cccc(C(F)(F)F)c3s2)CC1` (configuration not stated) had an EC1.5 of 25 µM.

Turning to `CC(c1nnnn1Cc1cccs1)N1CCN(c2nc3ccccc3s2)CC1` (configuration not stated), the EC1.5 stood at 7.2 µM.

Compound `CCC(c1nnnn1Cc1cccs1)N1CCN(c2nc3ccc([N+](=O)[O-])cc3s2)CC1` (configuration not stated) gave an EC1.5 of 32 µM.

The compound `CCC(c1nnnn1Cc1cccs1)N1CCN(c2nc3cccc(Br)c3s2)CC1` (configuration not stated) yielded an EC1.5 of 22 µM.

Compound `COc1ccc(Cn2nnnc2CN2CCN(c3nc4ccccc4s3)CC2)cc1` displayed an EC1.5 of over 64 µM.

For the compound `CCC(c1nnnn1Cc1cccs1)N1CCC(c2nc3ccccc3s2)CC1` (configuration not stated), the EC1.5 amounted to 9.6 µM.

The target of another experiment is T2, Dystroglycan 1 (Mus musculus) (UniProt Q62165).
T2 sequence (whole entry): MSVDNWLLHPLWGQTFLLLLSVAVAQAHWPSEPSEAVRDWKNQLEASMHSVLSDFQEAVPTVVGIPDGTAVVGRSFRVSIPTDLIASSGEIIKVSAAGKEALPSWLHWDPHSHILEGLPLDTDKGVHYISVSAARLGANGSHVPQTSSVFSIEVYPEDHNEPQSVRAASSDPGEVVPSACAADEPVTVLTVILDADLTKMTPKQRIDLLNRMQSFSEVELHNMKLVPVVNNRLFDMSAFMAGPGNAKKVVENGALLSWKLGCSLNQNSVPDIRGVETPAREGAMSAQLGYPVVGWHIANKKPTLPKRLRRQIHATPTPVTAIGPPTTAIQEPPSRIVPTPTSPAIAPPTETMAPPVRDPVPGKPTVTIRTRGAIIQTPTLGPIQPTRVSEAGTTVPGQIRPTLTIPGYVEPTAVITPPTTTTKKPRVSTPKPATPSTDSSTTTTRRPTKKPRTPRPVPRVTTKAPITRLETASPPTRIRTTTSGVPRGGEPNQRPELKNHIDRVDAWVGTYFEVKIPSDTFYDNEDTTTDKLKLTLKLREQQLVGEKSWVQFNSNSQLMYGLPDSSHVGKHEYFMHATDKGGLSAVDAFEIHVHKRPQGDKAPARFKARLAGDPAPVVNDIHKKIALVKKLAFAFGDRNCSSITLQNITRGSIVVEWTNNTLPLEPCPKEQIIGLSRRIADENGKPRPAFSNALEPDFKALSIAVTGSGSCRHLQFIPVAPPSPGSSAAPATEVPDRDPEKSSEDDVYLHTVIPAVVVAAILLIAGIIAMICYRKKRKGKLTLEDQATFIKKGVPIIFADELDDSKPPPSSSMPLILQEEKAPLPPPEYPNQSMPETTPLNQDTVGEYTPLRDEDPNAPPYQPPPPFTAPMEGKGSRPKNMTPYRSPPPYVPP
Briefly: Increase of functional O-mannosylation of alpha-dystroglycan in mouse C2C12 cells expressing LARGE at 10 uM after 48 hrs by alpha-screen assay relative to control. The format is cell-based.
In the case of `c1csc(Cn2nnnc2CN2CCN(c3nc4ccccc4s3)CC2)c1`, the Activity is 37%.

`CCC(c1nnnn1Cc1cccs1)N1CCN(c2nc3ccccc3s2)CC1` (configuration not stated) showed an Activity of 56%.

For the origin of these results see ChEMBL document CHEMBL3739371, “Small molecules enhance functional O-mannosylation of Alpha-dystroglycan” (Bioorg Med Chem, 2015).
